Results as given in article PMC4139355 (PLoS ONE, 2014).
Where two headings read alike, the source gives them in different places. Blank lines part the entries; values can stand above or below the compound they belong to.

Assays:
[1] = tested on: AZ-GR cells; assay: MTT cytotoxicity test in AZ-GR cells
Experimental: (§1) A stably transfected gene reporter cell line AZ-GR was used for assessment of GR transcriptional activity. A transiently transfected LS174T human colon adenocarcinoma cells were used for assessment of PXR transcriptional activity. […] The reporter plasmid was transiently transfected to LS174T cells by lipofection (FuGENE 6) with 300 ng/well of p3A4-luc reporter in 24-well plates. Cells were incubated for 24 h with tested compounds and/or vehicle (DMSO; 0.1% v/v), in the presence or absence of RIF (10 µM; LS174T cells) or DEX (100 nM; AZ-GR cells). After the treatments, cells were lysed and luciferase activity was measured. In parallel, cell viability was determined by conventional MTT test.
(§2) Model activator of GR was dexamethasone (DEX; 0.1 µM). Treatments were performed in triplicates. Upper panels: MTT test was performed and absorbance was measured at 540 nm. The data are the mean from experiments from three consecutive passages of cells and are expressed as a percentage of viability of control cells. The values of IC50 were calculated and are indicated in a figure. […] The data are the mean from experiments from four consecutive passages of cells and are expressed as a percentage of maximal induction attained by RIF. […] The data are the mean from experiments from four consecutive passages of cells and are expressed as a fold induction of luciferase activity over control cells.

[2] = tested on: LS174T cells; assay: MTT cytotoxicity test in LS174T cells; conditions: for viability of LS174T cells (in words): MTT, 24 h, LAN up to 100 µM, OME up to 250 µM
Experimental: as §1
(§3) Gene reporter assays were performed in two different experimental layouts.
as §2, with “Treatments” for “Model activator of GR was dexamethasone (DEX; 0.1 µM). Treatments”

[3] = molecular target: T1, glucocorticoid receptor GR (Homo sapiens, UniProt P04150); conditions: AZ-GR cells, 24 h, agonist mode
T1 sequence (P04150 1-777): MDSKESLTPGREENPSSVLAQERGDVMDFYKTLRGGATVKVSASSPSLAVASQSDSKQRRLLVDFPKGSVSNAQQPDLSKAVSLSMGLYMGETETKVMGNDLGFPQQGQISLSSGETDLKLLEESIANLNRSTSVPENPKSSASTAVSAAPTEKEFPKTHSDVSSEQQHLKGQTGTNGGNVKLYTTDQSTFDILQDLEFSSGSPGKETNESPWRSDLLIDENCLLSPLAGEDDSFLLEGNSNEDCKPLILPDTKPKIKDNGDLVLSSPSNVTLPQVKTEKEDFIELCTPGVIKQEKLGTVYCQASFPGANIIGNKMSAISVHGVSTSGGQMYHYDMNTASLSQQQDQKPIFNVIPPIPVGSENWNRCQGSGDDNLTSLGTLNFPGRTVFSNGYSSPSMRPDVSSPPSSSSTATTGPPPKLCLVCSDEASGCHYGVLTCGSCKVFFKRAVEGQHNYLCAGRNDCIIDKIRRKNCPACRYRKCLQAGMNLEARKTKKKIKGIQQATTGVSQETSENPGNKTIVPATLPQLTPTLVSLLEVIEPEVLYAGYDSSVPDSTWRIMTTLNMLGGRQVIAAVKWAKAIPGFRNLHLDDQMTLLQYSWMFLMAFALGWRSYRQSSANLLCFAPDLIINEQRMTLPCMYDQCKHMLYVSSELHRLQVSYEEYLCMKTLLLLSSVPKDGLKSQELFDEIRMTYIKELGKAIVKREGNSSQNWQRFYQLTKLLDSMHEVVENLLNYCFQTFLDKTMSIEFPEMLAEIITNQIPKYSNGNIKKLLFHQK
Experimental: as §1, §2

[4] = tested on: CYP3A4 protein in HepG2 cells; assay: CYP3A4 protein expression (Western blot) in HepG2 cells; conditions: 48 h
Experimental: Total protein extracts were prepared as described elsewhere. SDS–PAGE gels (10%) were run on a BioRad apparatus according to the general procedure followed by the protein transfer onto PVDF membrane. The membrane was saturated with 5% non-fat dried milk for 1 h at room temperature. […] Chemiluminescent detection was performed using horseradish peroxidase-conjugated secondary antibodies (Santa Cruz Biotechnology) and Western blotting Luminol kit (Santa Cruz Biotechnology). The density of bands was measured by densitometry.
Density of bands was quantified by densitometry.

[5] = tested on: CYP3A4-mediated luciferase activity in HepG2 cells; set-up: method as in PMID 12235278, PMID 20832446; conditions: HepG2 cells reporter gene assay; cited from earlier work
[6] = tested on: CYP3A4 mRNA in primary human hepatocytes; set-up: method as in PMID 12695340; conditions: 100 µM–200 µM OME; cited from earlier work
[7] = MTT cytotoxicity test in AZ-GR cells; conditions: human, AZ-GR cells (stably transfected GR gene reporter cell line), cytotoxicity in AZ-GR cells IC50, MTT, 24 h
Experimental: as §1, §2

[8] = molecular target: T1, glucocorticoid receptor GR; assay: GR gene reporter assay in AZ-GR cells, antagonist mode with dexamethasone; assay type: cell-based; conditions: in the presence of DEX 0.1 µM, 24 h, read-out: GR activation, antagonist mode IC50
Experimental: as §1, §2

[9] = MTT cytotoxicity test in LS174T cells; conditions: human, LS174T cells
Experimental: as §1, §3
as §2, with “Treatments” for “Model activator of GR was dexamethasone (DEX; 0.1 µM). Treatments”

[10] = molecular target: T2, pregnane X receptor PXR (Homo sapiens, UniProt O75469); assay: PXR gene reporter assay (p3A4-luc in LS174T cells), agonist mode
T2 sequence (O75469 1-434): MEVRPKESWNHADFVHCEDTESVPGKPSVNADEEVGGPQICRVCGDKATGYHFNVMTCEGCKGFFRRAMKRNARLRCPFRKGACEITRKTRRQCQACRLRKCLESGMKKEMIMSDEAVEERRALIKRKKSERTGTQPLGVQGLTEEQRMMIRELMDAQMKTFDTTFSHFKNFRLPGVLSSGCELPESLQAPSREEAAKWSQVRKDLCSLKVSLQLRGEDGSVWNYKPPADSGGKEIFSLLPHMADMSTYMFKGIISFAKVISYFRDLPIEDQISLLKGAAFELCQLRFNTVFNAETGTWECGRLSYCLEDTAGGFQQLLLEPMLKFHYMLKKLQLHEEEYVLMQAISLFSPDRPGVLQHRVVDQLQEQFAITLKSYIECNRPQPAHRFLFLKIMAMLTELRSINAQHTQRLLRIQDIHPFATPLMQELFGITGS
Experimental: as §1, §3
as §2, with “Treatments” for “Model activator of GR was dexamethasone (DEX; 0.1 µM). Treatments”

Compound: Cc1c(OCC(F)(F)F)ccnc1C[S+]([O-])c1nc2ccccc2[nH]1 (racemic) [rac-LAN, rac-lansoprazole]
IC50 [1]: 200 ± 19.5 µM
IC50 [2]: > 100 µM

Compound: COc1ccc2[nH]c([S+]([O-])Cc3ncc(C)c(OC)c3C)nc2c1 (racemic) [rac-OME, rac-omeprazole]
IC50 [1]: > 250 µM
IC50 [2]: > 250 µM

effect on basal activity of GR (in words) [3]: weak effects on basal activity of GR
induction of CYP3A4 protein (in words) [4]: induced CYP3A4 protein
Compound: Cc1c(OCC(F)(F)F)ccnc1C[S+]([O-])c1nc2ccccc2[nH]1 (stereo not drawn) [LAN, lansoprazole]
viability of LS174T cells (in words) [2]: did not observe significant decline in viability

Compound: COc1ccc2[nH]c([S+]([O-])Cc3ncc(C)c(OC)c3C)nc2c1 (stereo not drawn) [OME, omeprazole]
induction of CYP3A4-mediated luciferase activity (in words) [5]: showed an induction of CYP3A4-mediated luciferase activity
viability of LS174T cells (in words) [2]: did not observe significant decline in viability
CYP3A4 mRNA expression induction [6]: 4 fold

IC50 [8]: ~100 µM
Compound: Cc1c(OCC(F)(F)F)ccnc1C[S@@+]([O-])c1nc2ccccc2[nH]1 [R-LAN, R-lansoprazole]
IC50 at 24 h [7]: 184 ± 2.9 µM
IC50 at 24 h [9]: > 100 µM

Compound: COc1ccc2nc([S@+]([O-])Cc3ncc(C)c(OC)c3C)[nH]c2c1 [R-OME, R-omeprazole]
IC50 [1]: > 250 µM
PXR activation, agonist mode (in words) ([10]; 24 h, LS174T cells with p3A4-luc): strongly activated PXR in concentrations 100 µM and 250 µM
EC50 ([10]; read-out: PXR activation, agonist mode EC50, 24 h, LS174T cells with p3A4-luc, absence of RIF): 25.3 ± 3.1 µM
IC50 [2]: > 250 µM

Compound: Cc1c(OCC(F)(F)F)ccnc1C[S@+]([O-])c1nc2ccccc2[nH]1 [S-LAN, S-lansoprazole]
IC50 [1]: 200 ± 6.5 µM
induction of CYP3A4 protein (in words) [4]: strongest effects
IC50 [2]: > 100 µM

EC50 [10]: 2 ± 0.6 µM
Compound: COc1ccc2nc([S@@+]([O-])Cc3ncc(C)c(OC)c3C)[nH]c2c1 [S-OME, S-omeprazole]
IC50 at 24 h [7]: 214 µM
PXR activation, agonist mode (in words) ([10]; human, 24 h): activated PXR in concentrations 10 µM and 100 µM with drop of activation at 250 µM
IC50 at 24 h [9]: > 250 µM
